In patent publication US20230057359A1, “NOVEL USE OF STEVIOL” (SUNTORY HOLDINGS LIMITED, priority 2019, published 2023):

Assays:
HepG2 cells [1] = assay: Fat accumulation test in hepatocytes (oil red staining, oleic acid); format: cell-based; settings: for Relative fat accumulation level (%): 0.2 mM oleic acid, 24 hours, DMSO=100%
Description: Normal human subcutaneous preadipocytes were precultured using the growth medium in the same manner as in Example 1. The cells were detached using 0.25% trypsin-EDTA, seeded at 10,000 cells/100 μL/well to a 96-well plate using a growth medium, and cultured overnight in a CO2 incubator. On the next day, the medium was replaced with 100 μL of a differentiation medium supplemented with varying concentrations of steviol (12.5, 25, 50, 100 or 200 μg/mL, dissolved in 0.1% DMSO (final concentration)). The cells were cultured for 10 days in a CO2 incubator to induce their differentiation into adipocytes. On the fourth and seventh days after the differentiation induction, the medium was replaced with a fresh medium (100 μL) having the same composition as above. A differentiation medium supplemented with 25 mM LiCl (Cat. No. SML0559, Sigma-Aldrich Co., LLC) was used as a positive control, and a differentiation medium supplemented with 0.1% DMSO (final concentration) was used as a negative control. Cells cultured in a growth medium were used as an untreated control (Untreated). The cells thus cultured were subjected to oil red staining. Specifically, the cells were washed twice with 100 μL of DPBS (Cat. No. 14190250, Thermo Fisher Scientific Inc.). Then, the cells were fixed (room temperature, 10 min) in 100 μL of a 10% formalin solution (Cat. No. 061-00416, FUJIFILM Wako Pure Chemical Corp.). The cells were washed twice with 100 μL of DPBS, then incubated for 1 minute in 100 μL of 60% 2-propanol (Cat. No. 166-04836, FUJIFILM Wako Pure Chemical Corp.) that replaced the medium, and stained for 15 minutes in 100 μL of an oil red staining solution (Cat. No. 00625, Sigma-Aldrich Co., LLC) that replaced the 2-propanol solution. The cells were washed once with 100 μL of 60% 2-propanol and washed twice with 100 μL of DPBS. Then, cell images were taken in 100 μL of DPBS. After subsequent replacement with 120 μL of 100% 2-propanol, oil red was extracted by incubation for 5 minutes, and 100 μL of the extracts was transferred to each well of a fresh 96-well plate. Absorbance (520 nm) was measured using a plate reader (VARIOSKAN FLASH, Thermo Fisher Scientific Inc.), and a relative fat accumulation level was calculated. Significant difference of differentiation non-induced group vs differentiation induced group (negative control group) was tested (two-tailed), and P<0.05 was regarded as having significant difference. Also, significant difference of negative control group vs steviol addition group/positive control group was tested (two-tailed) by the Dunnett test, and P<0.05 was regarded as having significant difference. […] HepG2 cells were precultured using the growth medium in the same manner as in Example 5. The cells were detached using 0.25% trypsin-EDTA, seeded at 30,000 cells/100 μL/well to a 96-well plate using the growth medium, and cultured overnight in a CO2 incubator. On the next day, the medium was replaced with 100 μL of a test medium (DMEM (high glucose) supplemented with 0.2 mM oleic acid (Cat. No. 03008, Sigma-Aldrich), 10% FBS and 1% penicillin-streptomycin) supplemented with varying concentrations of steviol (12.5, 25, 50, 100 or 200 μg/mL, dissolved in 0.1% DMSO (final concentration)). The cells were cultured for 24 hours in a CO2 incubator. A test medium supplemented with 2 mM metformin (Cat. No. M2009, Tokyo Chemical Industry Co., Ltd.) was used as a positive control (Metformin), and a vehicle control composed of a test medium supplemented with 0.1% DMSO (final concentration) was used as a negative control (DMSO). Cells cultured in a test medium containing no oleic acid was used as an untreated control (Untreated). The cells thus cultured were subjected to oil red staining in the same manner as in Example 3, followed by photographing and calculation of a relative fat accumulation level. […]

HepG2 cells [2] = assay: TG accumulation test in hepatocytes (Adipogenesis Assay Kit, oleic acid); format: cell-based; settings: 0.2 mM oleic acid, 24 hours, DMSO=100%
Description: HepG2 cells were precultured using the growth medium in the same manner as in Example 5. The cells were detached using 0.25% trypsin-EDTA, seeded at 30,000 cells/100 μL/well to a 96-well plate using the growth medium, and cultured overnight in a CO2 incubator. On the next day, the medium was replaced with 100 μL of a test medium (DMEM (high glucose) supplemented with 0.2 mM oleic acid (Cat. No. 03008, Sigma-Aldrich), 10% FBS and 1% penicillin-streptomycin) supplemented with varying concentrations of steviol (12.5, 25, 50, 100 or 200 μg/mL, dissolved in 0.1% DMSO (final concentration)). The cells were cultured for 24 hours in a CO2 incubator. A test medium supplemented with 2 mM metformin (Cat. No. M2009, Tokyo Chemical Industry Co., Ltd.) was used as a positive control (Metformin), and a vehicle control composed of a test medium supplemented with 0.1% DMSO (final concentration) was used as a negative control (DMSO). Cells cultured in a test medium containing no oleic acid was used as an untreated control (Untreated). The cells thus cultured were subjected to oil red staining in the same manner as in Example 3, followed by photographing and calculation of a relative fat accumulation level. An intracellular triglyceride (TG) level in cells separately cultured under the same conditions as in the cells employed in the oil red staining was quantified using Adipogenesis Assay Kit (BioVision Inc.) according to the manufacturer's protocol. Absorbance (570 nm) was measured using a plate reader (VARIOSKAN FLASH, Thermo Fisher Scientific Inc.), and a relative TG level was calculated. Significant difference of untreated group vs fat accumulation induction group (negative control group) was tested (two-tailed) by the Student's t test as to the relative fat accumulation level and the relative TG level, and P<0.05 was regarded as having significant difference. Also, significant difference of negative control group vs steviol addition group/positive control group was tested (two-tailed) by the Dunnett test, and P<0.05 was regarded as having significant difference. The results of the fat accumulation test are shown in Table 6 and FIG. 6, and the results of the TG accumulation test are shown in Table 7 and FIG. 7.

Structure (SMILES): C=C1C[C@@]23CC[C@H]4[C@@](C)(CCC[C@@]4(C)C(=O)O)[C@@H]2CC[C@]1(O)C3 [Steviol, steviol]
- fat accumulation in HepG2 test (in words) (HepG2 cells [1]; 12.5 to 200 μg/mL): suppressed fat accumulation in adipocytes in a concentration-dependent manner
- Relative fat accumulation level (%) (HepG2 cells [1]; steviol 12.5 μg/mL): 98.9%
- Relative fat accumulation level (%) (HepG2 cells [1]; steviol 25 μg/mL): 98.1%
- Relative fat accumulation level (%) (HepG2 cells [1]; steviol 50 μg/mL): 86.4%
- Relative fat accumulation level (%) (HepG2 cells [1]; steviol 100 μg/mL): 85.6%
- Relative fat accumulation level (%) (HepG2 cells [1]; steviol 200 μg/mL): 83.0%
- Relative TG level (%) (HepG2 cells [2]; steviol 12.5 μg/mL): 98.8%
- Relative TG level (%) (HepG2 cells [2]; steviol 25 μg/mL): 90.0%
- Relative TG level (%) (HepG2 cells [2]; steviol 50 μg/mL): 93.7%
- Relative TG level (%) (HepG2 cells [2]; steviol 100 μg/mL): 89.4%
- Relative TG level (%) (HepG2 cells [2]; steviol 200 μg/mL): 81.4%
